From article PMC12748989 (Nature Communications, 2025)

Columns and labels:
[1] = system: MDA-MB-231 cells
[2] = system: PBMC; conditions: 12.5 µM

SMILES | Average (percentage cell inhibition), Dmastoparan MDA-MB231 12.5uM [1] [%] | Average (percentage cell inhibition), Mastoparan PBMC [2] [%]
CC[C@H](C)[C@H](N)C(=O)N[C@@H](CC(N)=O)C(=O)N[C@@H](CC(C)C)C(=O)N[C@@H](CCCCN)C(=O)N[C@@H](C)C(=O)N[C@@H](CC(C)C)C(=O)N[C@@H](C)C(=O)N[C@@H](C)C(=O)N[C@@H](CC(C)C)C(=O)NCC(=O)N[C@@H](CCCCN)C(=O)N[C@@H](CCCCN)C(=O)N[C@H](C(=O)N[C@@H](CC(C)C)C(N)=O)[C@@H](C)CC [G10] | 20.1107 | 11.4267
CC[C@H](C)[C@H](N)C(=O)N[C@@H](CC(N)=O)C(=O)N[C@@H](CC(C)C)C(=O)N[C@@H](CCCCN)C(=O)N[C@@H](C)C(=O)N[C@@H](CC(C)C)C(=O)N[C@@H](C)C(=O)N[C@@H](C)C(=O)N[C@@H](CC(C)C)C(=O)N[C@@H](C)C(=O)NCC(=O)N[C@@H](CCCCN)C(=O)N[C@H](C(=O)N[C@@H](CC(C)C)C(N)=O)[C@@H](C)CC [G11] | 29.778 | 15.1682
CC[C@H](C)[C@H](N)C(=O)N[C@@H](CC(N)=O)C(=O)N[C@@H](CC(C)C)C(=O)N[C@@H](CCCCN)C(=O)N[C@@H](C)C(=O)N[C@@H](CC(C)C)C(=O)N[C@@H](C)C(=O)N[C@@H](C)C(=O)N[C@@H](CC(C)C)C(=O)N[C@@H](C)C(=O)N[C@@H](CCCCN)C(=O)NCC(=O)N[C@H](C(=O)N[C@@H](CC(C)C)C(N)=O)[C@@H](C)CC [G12] | 17.8169 | 13.7945
CC[C@H](C)[C@H](N)C(=O)N[C@@H](CC(N)=O)C(=O)N[C@@H](CC(C)C)C(=O)N[C@@H](CCCCN)C(=O)N[C@@H](C)C(=O)N[C@@H](CC(C)C)C(=O)N[C@@H](C)C(=O)N[C@@H](C)C(=O)N[C@@H](CC(C)C)C(=O)N[C@@H](C)C(=O)N[C@@H](CCCCN)C(=O)N[C@@H](CCCCN)C(=O)NCC(=O)N[C@@H](CC(C)C)C(N)=O [G13] | 23.4491 | 6.832
CC[C@H](C)[C@H](N)C(=O)N[C@@H](CC(N)=O)C(=O)N[C@@H](CC(C)C)C(=O)N[C@@H](CCCCN)C(=O)N[C@@H](C)C(=O)N[C@@H](CC(C)C)C(=O)N[C@@H](C)C(=O)N[C@@H](C)C(=O)N[C@@H](CC(C)C)C(=O)N[C@@H](C)C(=O)N[C@@H](CCCCN)C(=O)N[C@@H](CCCCN)C(=O)N[C@H](C(=O)NCC(N)=O)[C@@H](C)CC [G14] | 28.3643 | 3.069
CC[C@H](C)[C@H](NC(=O)[C@H](CCCCN)NC(=O)[C@H](CCCCN)NC(=O)[C@H](C)NC(=O)[C@H](CC(C)C)NC(=O)[C@H](C)NC(=O)[C@H](C)NC(=O)[C@H](CC(C)C)NC(=O)[C@H](C)NC(=O)[C@H](CCCCN)NC(=O)[C@H](CC(C)C)NC(=O)[C@H](CC(N)=O)NC(=O)[C@@H](N)Cc1c[nH]cn1)C(=O)N[C@@H](CC(C)C)C(N)=O [H1] | 37.0221 | 0.9359
CC[C@H](C)[C@H](N)C(=O)N[C@@H](Cc1c[nH]cn1)C(=O)N[C@@H](CC(C)C)C(=O)N[C@@H](CCCCN)C(=O)N[C@@H](C)C(=O)N[C@@H](CC(C)C)C(=O)N[C@@H](C)C(=O)N[C@@H](C)C(=O)N[C@@H](CC(C)C)C(=O)N[C@@H](C)C(=O)N[C@@H](CCCCN)C(=O)N[C@@H](CCCCN)C(=O)N[C@H](C(=O)N[C@@H](CC(C)C)C(N)=O)[C@@H](C)CC [H2] | 35.1529 | 5.675
